From ChEMBL document CHEMBL5346873, “Strategic modification of low-activity natural antimicrobial peptides confers antibacterial potential in vitro and in vivo” (Eur J Med Chem, 2023) come the findings set out here.

A word on the MIC: it is the least concentration at which growth counts as inhibited.

The source made the active and inactive calls. The calls are words filed in the database; no cut-off is given here.

Experiment [1] relates to Pseudomonas aeruginosa. Description: Additive antibacterial activity against Pseudomonas aeruginosa assessed as doxycycline MIC by checkerboard microtiter plate assay. It counts as functional.
Experiment [2] relates to Vibrio vulnificus. In words: Antibacterial activity against Vibrio vulnificus infected in BALB/c mouse wound infection model assessed as reduction in bacterial infection at 6.25 ug per animal administered 12 hrs post infection and measured for 14 days. The class given is functional, organism-based. The following applies: dose 6.25 µg, time 14.0 day.
The subject of experiment [3] is Klebsiella aerogenes. In words: Additive antibacterial activity against Enterobacter aerogenes assessed as doxycycline MIC by checkerboard microtiter plate assay. The class given is functional.
Experiment [4] relates to Escherichia coli. Description: Additive antibacterial activity against Escherichia coli assessed as doxycycline MIC by checkerboard microtiter plate assay. It counts as functional.
In experiment [5] the test system is Streptococcus iniae. In words: Synergistic antibacterial activity against Streptococcus iniae assessed as fractional inhibitory concentration in presence of doxycycline by checkerboard microtiter plate assay. It counts as functional.
The test system of experiment [6] is Vibrio vulnificus. Description: Antibacterial activity against Vibrio vulnificus infected in BALB/c mouse wound infection model assessed as reduction in wound infection rate at 6.25 ug per animal administered 12 hrs post infection and measured for 14 days. It counts as functional, organism-based. The following applies: dose 6.25 µg, time 14.0 day.
For experiment [7], the system named is Escherichia coli. Description: Additive antibacterial activity against Escherichia coli in presence of doxycycline by checkerboard microtiter plate assay. It counts as functional.
Experiment [8] relates to Pseudomonas aeruginosa. In words: Additive antibacterial activity against Pseudomonas aeruginosa assessed as fractional inhibitory concentration in presence of doxycycline by checkerboard microtiter plate assay. It counts as functional.
The subject of experiment [9] is Streptococcus iniae. Description: Antibacterial activity against Streptococcus iniae in presence of human serum. It counts as functional, organism-based.
The test system of experiment [10] is Vibrio vulnificus. Description: Bactericidal activity against Vibrio vulnificus 204 at MIC after 5 mins. The class given is functional, organism-based.
Experiment [11] has as its system Klebsiella pneumoniae. Description: Synergistic antibacterial activity against Klebsiella pneumoniae expressing NDM1 in presence of doxycycline by checkerboard microtiter plate assay. It counts as functional.
Experiment [12] concerns Klebsiella pneumoniae. Description: Synergistic antibacterial activity against Klebsiella pneumoniae expressing NDM1 assessed as fractional inhibitory concentration in presence of meropenem by checkerboard microtiter plate assay. The class given is functional.
Experiment [13] concerns Klebsiella pneumoniae. In words: Synergistic antibacterial activity against Klebsiella pneumoniae expressing NDM1 assessed as meropenem MIC by checkerboard microtiter plate assay. The class given is functional.
Experiment [14] deals with Vibrio vulnificus. In words: Antibacterial activity against Vibrio vulnificus infected in BALB/c mouse wound infection model assessed as survival at 6.25 ug per animal administered 12 hrs post infection and measured for 14 days. It counts as functional. The following applies: dose 6.25 µg; time 14 day.
Experiment [15] has as its system Klebsiella aerogenes. In words: Additive antibacterial activity against Enterobacter aerogenes in presence of doxycycline by checkerboard microtiter plate assay. It counts as functional.
In experiment [16] the test system is Escherichia coli. In words: Additive antibacterial activity against Escherichia coli assessed as fractional inhibitory concentration in presence of doxycycline by checkerboard microtiter plate assay. It counts as functional.
Experiment [17] relates to Pseudomonas aeruginosa. Description: Additive antibacterial activity against Pseudomonas aeruginosa in presence of doxycycline by checkerboard microtiter plate assay. It counts as functional.
The test system of experiment [18] is Klebsiella aerogenes. Description: Additive antibacterial activity against Enterobacter aerogenes assessed as fractional inhibitory concentration in presence of doxycycline by checkerboard microtiter plate assay. The class given is functional.
Experiment [19] has as its system Klebsiella pneumoniae. In words: Synergistic antibacterial activity against Klebsiella pneumoniae expressing NDM1 in presence of meropenem by checkerboard microtiter plate assay. It counts as functional.
The test system of experiment [20] is Klebsiella pneumoniae. In words: Additive antibacterial activity against Klebsiella pneumoniae expressing NDM1 in presence of meropenem. The class given is functional.
Experiment [21] concerns Pseudomonas aeruginosa. Description: Antibacterial activity against Pseudomonas aeruginosa in presence of doxycycline. The class given is functional.
In experiment [22] the test system is Vibrio vulnificus. Description: Bactericidal activity against Vibrio vulnificus 204 at MIC after 30 mins. It counts as functional. As to conditions: 0.5 h.
Experiment [23] has as its system Escherichia coli. Description: Synergistic antibacterial activity against Escherichia coli in presence of doxycycline. The class given is functional.
Experiment [24] has as its system Escherichia coli. Description: Synergistic antibacterial activity against Escherichia coli assessed as doxycycline MIC. It counts as functional.
The subject of experiment [25] is Klebsiella aerogenes. In words: Antibacterial activity against Enterobacter aerogenes in presence of doxycycline. It counts as functional.
Experiment [26] has as its system Klebsiella aerogenes. In words: Antibacterial activity against Enterobacter aerogenes assessed as doxycycline MIC. It counts as functional.
Experiment [27] deals with Klebsiella aerogenes. Description: Antibacterial activity against Enterobacter aerogenes assessed as fractional inhibitory concentration. It counts as functional.
Experiment [28] concerns Escherichia coli. In words: Synergistic antibacterial activity against Escherichia coli assessed as fractional inhibitory concentration in presence of doxycycline. It counts as functional.
Experiment [29] deals with Pseudomonas aeruginosa. In words: Antibacterial activity against Pseudomonas aeruginosa assessed as fractional inhibitory concentration in presence of doxycycline. The class given is functional.
Experiment [30] concerns Vibrio vulnificus. Description: Antibacterial activity against Vibrio vulnificus infected in BALB/c mouse wound infection model assessed as reduction in wound infection rate at 12.5 ug per animal administered 12 hrs post infection and measured for 14 days. It counts as functional, organism-based. The following applies: dose 12.5 µg, time 14.0 day.
The subject of experiment [31] is Pseudomonas aeruginosa. In words: Antibacterial activity against Pseudomonas aeruginosa assessed as doxycycline MIC. The class given is functional.
In experiment [32] the test system is Vibrio vulnificus. Description: Antibacterial activity against Vibrio vulnificus infected in BALB/c mouse wound infection model assessed as survival at 12.5 ug per animal administered 12 hrs post infection and measured for 14 days. The class given is functional. As to conditions: dose 12.5 µg; time 14 day.
The subject of experiment [33] is Klebsiella pneumoniae. In words: Additive antibacterial activity against Klebsiella pneumoniae expressing NDM1 assessed as fractional inhibitory concentration in presence of meropenem. The class given is functional.
The test system of experiment [34] is Vibrio vulnificus. Description: Antibacterial activity against Vibrio vulnificus infected in BALB/c mouse wound infection model assessed as reduction in bacterial infection at 12.5 ug per animal administered 12 hrs post infection and measured for 14 days. The class given is functional, organism-based. The following applies: dose 12.5 µg, time 14.0 day.
In experiment [35] the test system is Klebsiella pneumoniae. Description: Additive antibacterial activity against Klebsiella pneumoniae expressing NDM1 assessed as meropenem MIC. It counts as functional.

For H-FKWKSVLKGVKGFVKGYF-OH, the MIC in [1] came to 6.25 µg/mL; in experiment [3], 0.78 µg/mL; in experiment [4], 0.024 µg/mL; in [7] it was 3.12 µg/mL; in experiment [11], 1.56 µg/mL; in experiment [13], 3.12 µg/mL. Besides, the results for the MIC in experiment [15], in [17] and in [19] were 6.25 µg/mL, 12.5 µg/mL and 6.25 µg/mL, respectively. Also, the outcome in experiment [2], in [9] and in experiment [10] was Active. Moreover, the FIC in experiment [5] is 0.04; in [8] it was 1; in experiment [12] it was 0.26; in experiment [16] it was 0.53; in experiment [18], 1. Moreover, the result in [6] was inactive. The Activity in [14] is given as 20%.
As for H-KKCIAKAILKKAKKLLKKLVNP-OH, the MIC in experiment [20] turned out to be 12.5 µg/mL; in experiment [21], 25 µg/mL; in [23], 6.25 µg/mL; in experiment [24], 0.195 µg/mL; in experiment [25], 6.25 µg/mL; in experiment [26], 0.048 µg/mL. The MIC in experiment [11] was 3.12 µg/mL; in [31], 1.56 µg/mL; in experiment [35], 3.12 µg/mL. The results for the Activity in experiment [22] and in experiment [32] were 100% and 80%, respectively. Moreover, the FIC turned out to be 0.04 in experiment [5]; 1.03 in experiment [27]; 0.5 in experiment [28]; 1.12 in experiment [29]; 0.51 in experiment [33]. The result in [30] was inactive. In addition, in [34], the outcome was Active.
